# Results: patent US20240199613A1 (TAKEDA PHARMACEUTICAL COMPANY LIMITED, priority 2021, published 2024)
# Molecular target: human activated kallikrein enzyme (Homo sapiens, UniProt P03952)
# Experiment: Inhibition of activated plasma kallikrein, fluorogenic peptide substrate (PFR-AMC) assay, 500 pM enzyme format
# Assay type: biochemical
# Conditions: 500 pM activated kallikrein, 300 uM PFR-AMC, 30 min preincubation, 10 min reaction, room temperature; read-out: Primary Dose Response Assay: Average EC50
# Method: Compounds were evaluated for inhibition of the human activated kallikrein enzyme in two formats of an assay employing a fluorogenic peptide substrate. In one assay format, the concentrations of reagents were as follows: 20 mM Tris pH 7.5, 1 mM EDTA, 150 mM sodium chloride, 0.1% PEG-400, 0.1% Triton X-100, 500 pM activated kallikrein enzyme, 300 uM Pro-Phe-Arg-7-amido-4-methylcoumarin (PFR-AMC) substrate. Prior to reaction initiation with substrate, enzyme and inhibitors were preincubated for 30 min at room temperature. After initiation with substrate, reactions were incubated for 10 min at room temperature and fluorescence emission at 460 nm from 380 nm excitation measured with a microplate reader. In another assay format, the concentrations of reagents were as follows: 20 mM Tris pH 7.5, 1 mM EDTA, 150 mM sodium chloride, 0.1% PEG-400, 0.1% Triton X-100, 5 pM activated kallikrein enzyme, 300 uM PFR-AMC substrate. Prior to reaction initiation with substrate, enzyme and inhibitors were preincubated for 30 min at room temperature. After initiation with substrate, reactions were incubated for 18 hr at room temperature and fluorescence emission at 460 nm from 380 nm excitation measured with a microplate reader.
# Table 6 provides the results of the assay in the format with 500 pM activated kallikrein assay.
# Sequence of human activated kallikrein enzyme (P03952 391-638 limits assumed): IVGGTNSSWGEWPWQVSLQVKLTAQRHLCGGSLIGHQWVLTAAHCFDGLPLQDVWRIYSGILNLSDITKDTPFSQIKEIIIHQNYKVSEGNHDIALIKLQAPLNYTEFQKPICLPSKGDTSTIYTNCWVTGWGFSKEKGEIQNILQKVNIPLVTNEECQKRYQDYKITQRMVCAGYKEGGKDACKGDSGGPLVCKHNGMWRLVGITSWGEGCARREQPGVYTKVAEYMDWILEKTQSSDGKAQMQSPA
# Sequence of human activated kallikrein enzyme (P03952 20-390 partner limits assumed): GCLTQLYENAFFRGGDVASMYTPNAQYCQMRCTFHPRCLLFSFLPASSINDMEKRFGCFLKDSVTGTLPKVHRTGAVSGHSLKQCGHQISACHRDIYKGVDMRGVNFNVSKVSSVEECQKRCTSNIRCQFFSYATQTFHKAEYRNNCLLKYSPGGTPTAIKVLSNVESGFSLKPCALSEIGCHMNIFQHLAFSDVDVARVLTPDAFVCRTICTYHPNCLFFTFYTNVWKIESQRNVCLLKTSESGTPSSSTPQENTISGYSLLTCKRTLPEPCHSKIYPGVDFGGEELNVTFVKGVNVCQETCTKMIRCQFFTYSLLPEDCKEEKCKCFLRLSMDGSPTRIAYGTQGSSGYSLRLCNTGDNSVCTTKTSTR
row,EC50 [nM],Structure (SMILES)
1,1 to 10,"CN1C(=O)CN(c2cc(C3CC3)cn3cc(CNc4ccc5ccc([C@H]6C[C@@H]6c6cc(Cl)ccc6C#N)nc5c4)nc23)C1=O (racemic) [Example 83, rac-4-chloro-2-((1S*,2S*)-2-(7-(((6-cyclopropyl-8-(3-methyl-2,4-dioxoimidazolidin-1-yl)imidazo[1,2-a]pyridin-2-yl)methyl)amino)quinolin-2-yl)cyclopropyl)benzonitrile]"
2,10 to 100,"COc1cc([C@H]2C[C@@H]2c2cccc(Cl)c2)nc2cc(NCc3cn4cc(C5CC5)cc(N5CC(=O)N(C)C5=O)c4n3)ncc12 [Example 18, 1-(2-(((2-((1S,2S)-2-(3-chlorophenyl)cyclopropyl)-4-methoxy-1,6-naphthyridin-7-yl)amino)methyl)-6-cyclopropylimidazo[1,2-a]pyridin-8-yl)-3-methylimidazolidine-2,4-dione]"
3,> 6500,"Clc1cccc([C@H]2C[C@@H]2c2nc3ccc(NCc4cn5cc(C6CC6)ccc5n4)cc3[nH]2)c1 [Example 45, 2-((1S,2S)-2-(3-chlorophenyl)cyclopropyl)-N-((6-cyclopropylimidazo[1,2-a]pyridin-2-yl)methyl)-1H-benzo[d]imidazol-6-amine]"
4,> 6500,"Cc1ccnc([C@H]2C[C@@H]2c2ccc3cccc(NCc4cn5cc(C6CC6)cc(N6CC(=O)N(C)C6=O)c5n4)c3n2)n1 (racemic) [Example 70, rac-1-(6-cyclopropyl-2-(((2-((1S*,2S*)-2-(4-methylpyrimidin-2-yl)cyclopropyl)quinolin-8-yl)amino)methyl)imidazo[1,2-a]pyridin-8-yl)-3-methylimidazolidine-2,4-dione]"
5,10 to 100,"O=c1nc([C@H]2C[C@@H]2c2cccc(Cl)c2)[nH]c2cc(NCc3cn4cc(C5CC5)ccc4n3)ccc12 [Example 50, 2-((1S,2S)-2-(3-chlorophenyl)cyclopropyl)-7-(((6-cyclopropylimidazo[1,2-a]pyridin-2-yl)methyl)amino)quinazolin-4 (1H)-one]"
6,10 to 100,"COc1cc([C@H]2C[C@@H]2c2cccc(Cl)c2)nc2cc(NCc3cn4cc(C5CC5)cc(N5CCCC5=O)c4n3)ccc12 (racemic) [Example 4, rac-1-(2-(((2-((7S*,2S*)-2-(3-chlorophenyl)cyclopropyl)-4-methoxyquinolin-7-yl)amino)methyl)-6-cyclopropylimidazo[1,2-a]pyridin-8-yl)pyrrolidin-2-one]"
7,100 to 6500,"Cc1ccnc([C@H]2C[C@@H]2c2ccc3c(ncn3Cc3cn4cc(C5CC5)cc(N5CC(=O)N(C)C5=O)c4n3)n2)n1 (racemic) [Example 72, rac-1-(6-cyclopropyl-2-((5-((1S*,2S*)-2-(4-methylpyrimidin-2-yl)cyclopropyl)-1H-imidazo[4,5-b]pyridin-1-yl)methyl)imidazo[1,2-a]pyridin-8-yl)-3-methylimidazolidine-2,4-dione]"
8,10 to 100,"COc1cc(OCc2cn3cc(C4CC4)cc(N4CC(=O)N(C)C4=O)c3n2)cc2nc([C@H]3C[C@@H]3c3nccc(C)n3)ccc12 (racemic) [Example 102, rac-1-(6-cyclopropyl-2-(((5-methoxy-2-((1S*,2S*)-2-(4-methylpyrimidin-2-yl)cyclopropyl)quinolin-7-yl)oxy)methyl)imidazo[1,2-a]pyridin-8-yl)-3-methylimidazolidine-2,4-dione]"
9,10 to 100,"Cc1ccnc([C@@H]2C[C@H]2c2ccc3ccc(NCc4cn5cc(C6CC6)cc(N6CC(=O)N(C)C6=O)c5n4)cc3n2)n1 (single isomer, unassigned) [Example 58]"
10,> 6500,"Clc1cccc([C@H]2C[C@@H]2c2nc3ncncc3n2Cc2cn3cc(C4CC4)ccc3n2)c1 [Example 44, 8-((1S,2S)-2-(3-chlorophenyl)cyclopropyl)-7-((6-cyclopropylimidazo[1,2-a]pyridin-2-yl)methyl)-7H-purine]"
11,10 to 100,"Cc1ccnc([C@H]2C[C@@H]2c2cc(C#N)c3ccc(NCc4cn5cc(C6CC6)cc(N6CC(=O)N(C)C6=O)c5n4)cc3n2)n1 (racemic) [Example 73, rac-7-(((6-cyclopropyl-8-(3-methyl-2,4-dioxoimidazolidin-1-yl)imidazo[1,2-a]pyridin-2-yl)methyl)amino)-2-((1S*,2S*)-2-(4-methylpyrimidin-2-yl)cyclopropyl)quinoline-4-carbonitrile]"
12,> 6500,"Cc1ccnc([C@H]2C[C@@H]2c2ccc3ncn(Cc4cn5cc(C6CC6)cc(N6CC(=O)N(C)C6=O)c5n4)c3n2)n1 (racemic) [Example 71, rac-1-(6-cyclopropyl-2-((5-((1S*,2S*)-2-(4-methylpyrimidin-2-yl)cyclopropyl)-3H-imidazo[4,5-b]pyridin-3-yl)methyl)imidazo[1,2-a]pyridin-8-yl)-3-methylimidazolidine-2,4-dione]"
13,1 to 10,"Cc1ccnc([C@H]2C[C@@H]2c2ccc3ccc(NCc4cn5cc(C6CC6)ccc5n4)cc3n2)n1 (racemic) [Example 19, rac-N-((6-cyclopropylimidazo[1,2-a]pyridin-2-yl)methyl)-2-((1S*,2S*)-2-(4-methylpyrimidin-2-yl)cyclopropyl)quinolin-7-amine]"
14,100 to 6500,"Cc1ccnc([C@H]2C[C@@H]2C2=NS(=O)(=O)c3ccc(NCc4cn5cc(C6CC6)ccc5n4)cc3N2C)n1 [Example 94, 6-(((6-cyclopropylimidazo[1,2-a]pyridin-2-yl)methyl)amino)-4-methyl-3-((1S,2S)-2-(4-methylpyrimidin-2-yl)cyclopropyl)-4H-benzo[e][1,2,4]thiadiazine 1,1-dioxide]"
15,1 to 10,"Cc1ccnc([C@H]2C[C@@H]2c2ccc3ccc(NCc4cn5cc(C6CC6)cc(N6C(=O)N(C)C(=O)C6C6(O)COC6)c5n4)cc3n2)n1 (relative stereo) [Example 90, rac-1-(6-cyclopropyl-2-(((2-((1S*,2S*)-2-(4-methylpyrimidin-2-yl)cyclopropyl)quinolin-7-yl)amino)methyl)imidazo[1,2-a]pyridin-8-yl)-5-(3-hydroxyoxetan-3-yl)-3-methylimidazolidine-2,4-dione]"
16,≤ 1,"COCc1cc([C@H]2C[C@@H]2c2nccc(C)n2)nc2cc(NCc3cn4cc(C5CC5)cc(N5CC(=O)N(C)C5=O)c4n3)ccc12 (racemic) [Example 76, rac-1-(6-cyclopropyl-2-(((4-(methoxymethyl)-2-((1S*,2S*)-2-(4-methylpyrimidin-2-yl)cyclopropyl)quinolin-7-yl)amino)methyl)imidazo[1,2-a]pyridin-8-yl)-3-methylimidazolidine-2,4-dione]"
17,10 to 100,"O=c1[nH]c([C@H]2C[C@@H]2c2cccc(Cl)c2)nc2cc(NCc3cn4cc(C5CC5)ccc4n3)ncc12 [Example 2, 2-((1S,2S)-2-(3-chlorophenyl)cyclopropyl)-7-(((6-cyclopropylimidazo[1,2-a]pyridin-2-yl)methyl)amino)pyrido[4,3-d]pyrimidin-4 (3H)-one]"
18,1 to 10,"O=c1cc(C2C[C@@H]2c2cccc(Cl)c2)[nH]c2cc(NCc3cn4cc(C5CC5)ccc4n3)ccc12 (mixture of isomers) [Example 49, rac-2-((1S*,2S*)-2-(3-chlorophenyl)cyclopropyl)-7-(((6-cyclopropylimidazo[1,2-a]pyridin-2-yl)methyl)amino)quinolin-4 (1H)-one]"
19,100 to 6500,"Cc1ccnc([C@H]2C[C@@H]2c2cnc3ccc(NCc4cn5cc(C6CC6)cc(N6CC(=O)N(C)C6=O)c5n4)cc3n2)n1 (racemic) [Example 62, rac-1-(6-cyclopropyl-2-(((3-((1S*,2S*)-2-(4-methylpyrimidin-2-yl)cyclopropyl)quinoxalin-6-yl)amino)methyl)imidazo[1,2-a]pyridin-8-yl)-3-methylimidazolidine-2,4-dione]"
20,> 6500,"O[C@H]1C[C@H](c2cn3cc(C4CC4)ccc3n2)N(c2cc3[nH]c([C@H]4C[C@@H]4c4cccc(Cl)c4)c(F)c3cn2)C1 (relative stereo) [Example 56, rac-(3S,5R)-1-(2-((1S*,2S*)-2-(3-chlorophenyl)cyclopropyl)-3-fluoro-1H-pyrrolo[3,2-c]pyridin-6-yl)-5-(6-cyclopropylimidazo[1,2-a]pyridin-2-yl)pyrrolidin-3-ol]"
21,1 to 10,Cc1ccnc([C@H]2C[C@@H]2c2nc3cc(NCc4cn5cc(C6CC6)ccc5n4)ccc3c(=O)[nH]2)n1 (relative stereo) [Example 3]
22,> 6500,"Clc1cccc([C@H]2C[C@@H]2c2nc3cccc(NCc4cn5cc(C6CC6)ccc5n4)c3[nH]2)c1 [Example 46, 2-((1S, 2S)-2-(3-chlorophenyl)cyclopropyl)-N-((6-cyclopropylimidazo[1,2-a]pyridin-2-yl)methyl)-1H-benzo[d]imidazol-7-amine]"
23,10 to 100,"Cc1ccnc([C@@H]2C[C@H]2C2=NS(=O)(=O)c3ccc(NCc4cn5cc(C6CC6)ccc5n4)cc3N2)n1 (single isomer, unassigned) [Example 66]"
24,100 to 6500,"Cc1ccnc([C@H]2C[C@@H]2c2ncc3cnc(NCc4cn5cc(C6CC6)cc(N6CC(=O)N(C)C6=O)c5n4)cc3n2)n1 (racemic) [Example 63, rac-1-(6-cyclopropyl-2-(((2-((1S*,2S*)-2-(4-methylpyrimidin-2-yl)cyclopropyl)pyrido[4,3-d]pyrimidin-7-yl)amino)methyl)imidazo[1,2-a]pyridin-8-yl)-3-methylimidazolidine-2,4-dione]"
